Laboratory results as given in patent US4088772A, “Methanodibenzocycloheptapyrroles” (E. I. Du Pont de Nemours and Company, priority 1975, dated 1978).
Where a name gives a salt, the structure may show the parent alone. Read-outs that look alike come from different tables or passages of the source.

Columns and labels:
[1] = tested on: phenylquinone-induced writhing; test: Phenylquinone writhing test (analgesia); type: in vivo, mouse (Carworth CF1 S female); conditions: Mus musculus
Text: This mouse test is predictive of analgesic response in humans. [E. Siegmund, R. Cadmus and G. Lee, Proc. Soc.
ED50 values were obtained graphically from the data.

[2] = tested on: female white mice; test: animal or person; conditions: Mus musculus, po
[3] = in vivo; conditions: mouse, in vivo, po
[4] = tested on: female CF1 S mice; test: Mouse spontaneous motor activity (activity cage); type: in vivo, mouse (CF1 S female); conditions: 0.5 h, read-out: Exploratory Loss Activity Cage ED50
Experimental: Mouse Spontaneous Motor Activity (Activity Cage)
Twenty-four per dose, 16- 20 g or 18-22 g, female CF1 S mice, fasted 16- 22 hours, are intubated (in pairs) with drug at t doses such as 0, 1, 3, 9, 27 and 81 mg/kg in 10 ml/kg of aqueous 1% methylcellulose. The mice are then put in separate "shoe-box" cages (12 × 7.5 × 5.3 inches plastic with a 0.33 inch mesh stainless steel lid), and 20 minutes after intubation the animals in pairs are moved to covered Woodard Photoelectric Activity Chambers (central light source type measurement floor area = 96 in^2). Ten minutes later (30 minutes after dosing) a 5-minute count is taken. Counting chamber characteristics are balanced out by counting 2 pairs of mice from each dose level in each of 6 different counting chambers. Half of each test is run in the a.m. and the other half is run in the p.m. to minimize "biological clock" variations.
Canad. Biol. 20, 239-50 (1961), raw counts are thus transformed for statistical treatment (Student's t test). The means of the square roots then are squared and an ED50 for stimulation or depression (or both) is determined graphically.

[5] = tested on: Holzman male white rats; test: Rat approach-avoidance test (anti-anxiety); type: in vivo, rat (Holzman male white); conditions: for anti-anxiety activity: in words; for No. of Responders: 1 hr, N=6 rats
Experimental: Potential as anti-anxiety agents was assessed by means of the potency of these compounds in the rat approach-avoidance test.
Approach-Avoidance Test Method
18 hr. waterdeprived Holzman male white rats, 150-175 g each, were used. The apparatus consists of two interconnected chambers, the first in which the animal is placed, and a second which contains the stimulus and a water bottle. The second is fitted with an electrifiable floor. On the first day, the rats are placed in the first chamber. They are allowed three minutes to find the water bottle in the second chamber and to drink water for at least two seconds. After three successful trials on the first day the animals are given one predrug trial on the second day. Then follows a second predrug trial during which the floor of the second chamber is electrified 1.5 seconds after the rat has commenced drinking water. The animals are randomized, dosed orally, and reexposed to the test situation at 1, 2, or 4 hours after the shock trial.

[6] = read-out: Catatonia ED50, Table 1, oral, mice
[7] = read-out: Exploratory Loss Visual ED50, Table 1, oral, mice
[8] = read-out: Muscle Tone ED50, Table 1, oral, mice
[9] = read-out: Ptosis ED50, Table 1, oral, mice
[10] = read-out: Reflexes Grip ED50, Table 1, oral, mice
[11] = read-out: Reflexes Lift ED50, Table 1, oral, mice
[12] = read-out: Reflexes Pinna ED50, Table 1, oral, mice
[13] = Table 1, oral, mice, 30 minutes after dosing

Row | SMILES | ED50 ([1]; po, Table 1, mice) [mg/kg] | ED50 [2, 6] [mg/kg] | ED50 [2, 7] [mg/kg] | ED50 [2, 8] [mg/kg] | ED50 [2, 9] [mg/kg] | ED50 [2, 10] [mg/kg] | ED50 [2, 11] [mg/kg] | ED50 [2, 12] [mg/kg] | ED50 [3] [mg/kg] | LD50 at 24 h [3] [mg/kg] | ED50 [4, 13] [mg/kg] | further results
1 | C1=C(CN2CC3c4ccccc4C4CC3(C2)c2ccccc24)CCCC1 (stereo not drawn) [Example 26, 2-(1-Cyclohexenylmethyl)-2,3,8,12b-tetrahydro-1H-3a,8-methanodibenzo[3.4:6,7]cyclohepta[1,2-c]pyrrole] | 6.8 | 10 | 12 | 7 | 6 | 400 | 15 | 15 | > 324 | > 324 | 0.8 | –
2 | c1ccc(CN2CC3c4ccccc4C4CC3(C2)c2ccccc24)cc1 (stereo not drawn) [Example 4, 2-Benzyl-2,3,8,12b-tetrahydro-1H-3a,8-methanodibenzo[3,4:6,7]cyclohepta[1,2-c]pyrrole] | 9.4 | 20 | 20 | 20 | 20 | > 324 | 36 | 300 | > 324 | > 324 | 4.6 | –
3 | C1=CCC(CN2CC3c4ccccc4C4CC3(C2)c2ccccc24)CC1 (stereo not drawn) [Example 27, 2-(3-Cyclohexenylmethyl)-2,3,8,12b-tetrahydro-1H-3a,8-methanodibenzo[3,4:6,7]cyclohepta[1,2-c]pyrrole] | 4.2 | 4.5 | 4.5 | 4.5 | 2.9 | 97 | 9 | 8 | > 324 | > 324 | 0.29 | –
4 | c1ccc2c(c1)[C@@H]1C[C@@]3(CN(CC4CCC4)C[C@H]23)c2ccccc21 (relative stereo) [Example 19, 2-Cyclobutylmethyl-2,3,8,12b-tetrahydro-1H-3a,8-methanodibenzo[3,4:6,7]cyclohepta[1,2-c]pyrrole] | – | 20 | 20 | 12 | 7 | 200 | 20 | 12 | – | > 324 | – | ED50 ([1]; Table 1, oral, mice): 5 mg/kg; ED50 ([3]; Tremors ED50, Table 1, mice): > 324 mg/kg; ED50 ([4]; po): 1 mg/kg
5 | CN(C)CCCN1c2ccccc2Sc2ccc(Cl)cc21 [Chlopromazine, Chlorpromazine, reference compound] | – | – | – | – | – | – | – | – | – | – | – | ED50 ([3]; Tremors ED50): > 324 mg/kg; anti-anxiety activity [5]: not active at non-sedating doses; ED50 ([4]; po): 7.3 mg/kg
6 | c1ccc2c(c1)[C@@H]1C[C@@]3(CN(C[C@@H]4C[C@H]5CC[C@@H]4C5)C[C@H]23)c2ccccc21 (relative stereo) [Example 35, 2-(2-Exo-bicyclo[2.2.1]heptylmethyl)-2,3,8,12b-tetrahydro-1H-3a,8-methanodibenzo[3,4:6,7]cyclohepta[1,2-c]pyrrole] | 6.2 | 15 | 8.6 | 12 | 5.1 | > 324 | 29 | 21 | > 324 | > 324 | 3.3 | –
7 | CCCCCCN1CC2c3ccccc3C3CC2(C1)c1ccccc13 (stereo not drawn) [Example 14, 2-n-Hexyl-2,3,8,12 b-tetrahydro-1H-3a,8-methanodibenzo[3,4:6,7]cyclohepta[1,2-c]pyrrole] | 2.6 | 5.6 | 7 | 4.1 | 4.5 | 187 | 8.6 | 11 | 326 | > 324 | 1.3 | –
8 | CC1CCC(CN2C[C@@H]3c4ccccc4[C@@H]4C[C@@]3(C2)c2ccccc24)C1 (stereo partly drawn) [Example 52, 2-(3-Methylcyclopentylmethyl)-2,3,8,12b-tetrahydro-1H-3a,8-methanodibenzo[3,4:6,7]cyclohepta[1,2-c]-pyrrole] | 5 | 12 | 12 | 12 | 7 | 200 | 12 | 7 | > 324 | > 324 | – | –
9 | CCCCCCCN1CC2c3ccccc3C3CC2(C1)c1ccccc13 (stereo not drawn) [Example 15, 2-n-Heptyl-2,3,8,12b-tetrahydro-1H-3a,8-methanodibenzo[3,4:6,7]cyclohepta[1,2-c]pyrrole] | 3.6 | 5 | – | – | < 3 | 260 | 9 | – | > 324 | > 324 | 1 | ED50 ([2]; read-out: Exploratory Loss Visual ED50, Table 1, Extrapolated value): 3.2 mg/kg; ED50 ([2]; read-out: Muscle Tone ED50, Table 1, Extrapolated value): 3 mg/kg
10 | C1=C(CN2CC3c4ccccc4C4CC3(C2)c2ccccc24)CCC1 (stereo not drawn) [Example 21, 2-(1-Cyclopentenylmethyl)-2,3,8,12b-tetrahydro-1H-3a,8-methanodibenzo[3,4:6,7]cyclohepta[1,2-c]pyrrole] | 2.9 | 20 | 7 | 36 | 7 | 300 | 36 | 20 | > 324 | > 324 | – | –
11 | c1ccc2c(c1)[C@@H]1C[C@@]3(CN(C4CCCC4)C[C@H]23)c2ccccc21 (relative stereo) [Example 48, 2-Cyclopentyl-2,3,8,12b-tetrahydro-1H-3a,8-methanodibenzo[3,4:6,7]cyclohepta[1,2-c]pyrrole] | – | 36 | 100 | 100 | 60 | 200 | 60 | 60 | – | > 324 | – | ED50 ([1]; Table 1, oral, mice): 38 mg/kg; ED50 ([3]; Tremors ED50, Table 1, mice): > 324 mg/kg
12 | CN1C(=O)CN=C(c2ccccc2)c2cc(Cl)ccc21 [Diazepam, reference compound] | – | – | – | – | – | – | – | – | – | – | – | ED50 ([3]; Tremors ED50, Table 1, mice): > 324 mg/kg; No. of Responders ([5]; 1 mg/kg oral): 0; No. of Responders ([5]; 3 mg/kg oral): 2; No. of Responders ([5]; 10 mg/kg oral): 5; ED50 ([5]; Rattus norvegicus, po, 1 h): 6 mg/kg; anti-anxiety activity [5]: active in this test; ED50 ([4]; po): 2 mg/kg
13 | c1ccc2c(c1)[C@@H]1C[C@@]3(CN(CC4C5CC6CC(C5)CC4C6)C[C@H]23)c2ccccc21 (relative stereo) [Example 53, 2-(2-Adamantylmethyl)-2,3,8,12b-tetrahydro-1H-3a,8-methanodibenzo[3,4:6,7]cyclohepta[1,2-c]pyrrole] | 94 | 36 | 60 | 100 | 300 | > 324 | 300 | 100 | > 524 | > 324 | – | –
14 | OCc1ccc2c(c1)[C@]13C[C@H]2c2ccccc2[C@H]1CN(CC1CCCC1)C3 (relative stereo) [Example 86, 2-Cyclopentylmethyl-2,3,8,12b-tetrahydro-1H-3a,8-methanodibenzo[3,4:6,7]cyclohepta[1,2-c]pyrrole-5-methanol Hydrochloride] | – | – | – | – | – | – | – | – | – | > 324 | – | ED50 ([1]; po, Table III, mice): 26 mg/kg; ED50 ([2]; read-out: Catatonia ED50, Table III, oral, mice): 60 mg/kg; ED50 ([2]; read-out: Exploratory Loss Visual ED50, Table III, oral, mice): 12 mg/kg; ED50 ([2]; read-out: Muscle Tone ED50, Table III, oral, mice): 60 mg/kg; ED50 ([2]; read-out: Ptosis ED50, Table III, oral, mice): 7 mg/kg; ED50 ([2]; read-out: Reflexes Grip ED50, Table III, oral, mice): 200 mg/kg; ED50 ([2]; read-out: Reflexes Lift ED50, Table III, oral, mice): 36 mg/kg; ED50 ([2]; read-out: Reflexes Pinna ED50, Table III, oral, mice): 20 mg/kg
